Measured values taken from article PMC4774911, “Biochemical Screening of Five Protein Kinases from Plasmodium falciparum against 14,000 Cell-Active Compounds” (PLoS ONE, 2016).
Read-outs that look alike come from different tables or passages of the source.

Key:
[1] = target: T1, Plasmodium falciparum calcium-dependent protein kinase 1 (CDPK1) (Plasmodium falciparum, UniProt P62344); assay: CDPK1 Kinase-Glo ATP-consumption screen and dose-response; assay type: biochemical; conditions: hits below 1 uM; read-out: CDPK1 IC50
T1 construct: 6-Histidine (N); made in house
T1 sequence (P62344 whole entry): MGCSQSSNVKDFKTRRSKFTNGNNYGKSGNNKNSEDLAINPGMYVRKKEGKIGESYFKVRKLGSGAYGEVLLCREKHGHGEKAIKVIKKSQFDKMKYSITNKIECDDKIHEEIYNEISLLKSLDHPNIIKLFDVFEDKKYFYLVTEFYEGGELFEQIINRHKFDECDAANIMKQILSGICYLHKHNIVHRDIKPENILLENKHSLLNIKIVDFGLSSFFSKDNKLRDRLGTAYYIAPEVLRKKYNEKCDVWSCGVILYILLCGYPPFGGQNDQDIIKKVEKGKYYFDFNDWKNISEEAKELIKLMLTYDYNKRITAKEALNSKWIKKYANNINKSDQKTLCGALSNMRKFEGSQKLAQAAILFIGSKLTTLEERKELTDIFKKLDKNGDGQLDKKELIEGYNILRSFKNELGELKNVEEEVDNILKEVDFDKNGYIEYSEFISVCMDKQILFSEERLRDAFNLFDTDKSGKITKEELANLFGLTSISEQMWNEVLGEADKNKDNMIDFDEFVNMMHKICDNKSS
Summary of the method: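 ATP consumption by recombinant P. falciparum CDPK4 or CDPK1 measured as residual ATP by Kinase-Glo luminescence, with 40 μM Syntide-2 substrate and 90 min incubation stopped with 5 mM EGTA. Single-point screen at 1 μM final, followed by dose-response; no-substrate wells as negative control.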

[2] = target: T2, Plasmodium falciparum calcium-dependent protein kinase 4 (CDPK4) (Plasmodium falciparum, UniProt Q8IBS5); assay: CDPK4 Kinase-Glo ATP-consumption screen and dose-response; assay type: biochemical; conditions: hits below 1 uM
T2 construct: 6-Histidine (N); made in house
T2 sequence (Q8IBS5 1-528): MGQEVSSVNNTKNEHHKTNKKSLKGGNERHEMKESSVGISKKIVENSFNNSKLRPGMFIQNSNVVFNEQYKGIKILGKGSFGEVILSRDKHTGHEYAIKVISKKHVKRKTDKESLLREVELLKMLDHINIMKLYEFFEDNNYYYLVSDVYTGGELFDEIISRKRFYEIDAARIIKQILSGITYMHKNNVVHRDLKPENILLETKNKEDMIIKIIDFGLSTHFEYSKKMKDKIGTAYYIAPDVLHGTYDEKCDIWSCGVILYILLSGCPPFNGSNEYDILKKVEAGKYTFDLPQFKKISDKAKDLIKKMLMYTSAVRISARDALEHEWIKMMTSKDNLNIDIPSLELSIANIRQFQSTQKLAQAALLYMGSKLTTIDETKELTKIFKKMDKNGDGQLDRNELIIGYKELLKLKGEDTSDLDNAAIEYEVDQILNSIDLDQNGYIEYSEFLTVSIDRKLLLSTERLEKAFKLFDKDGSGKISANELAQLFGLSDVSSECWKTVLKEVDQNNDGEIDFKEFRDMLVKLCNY
Protocol: Biochemical assays were performed in white 384-well plates (Nunc). Liquid transfers were done manually with 8-channel pipets. Compounds were initially tested in a single-point screen (final concentration 1 μM). […] The catalytic activity of each kinase was considered proportional to ATP consumed, as determined from measurements of residual [ATP] with the luciferase-based reagent Kinase-Glo (Promega) following incubation. Luminescence (proportional to residual [ATP]) was measured on the plate readers FLx800 (BioTek Instruments, Winooski, VT, USA) and MicroBeta^2 (PerkinElmer, Waltham, MA, USA). Incubation times were chosen to ensure near-complete ATP depletion in the absence of inhibition, thus maximizing the difference in signal between inhibited and uninhibited wells.
40 μM Syntide-2 was used as a substrate; BKI-1 [14] was used as a control inhibitor, while reaction mixtures lacking Syntide-2 were included as an additional negative control. Incubation time was 90 minutes. Reactions were terminated by adding excess EGTA (5 mM), which sequesters Ca^2+ and halts calcium-dependent kinase activity.

[3] = target: T3, Plasmodium falciparum protein kinase 6 (PK6) (Plasmodium falciparum, UniProt Q8IDW1); assay: biochemical; conditions: hits below 1 uM; read-out: PK6 IC50
T3 construct: 6-Histidine (N); made in house
T3 sequence (Q8IDW1 1-305): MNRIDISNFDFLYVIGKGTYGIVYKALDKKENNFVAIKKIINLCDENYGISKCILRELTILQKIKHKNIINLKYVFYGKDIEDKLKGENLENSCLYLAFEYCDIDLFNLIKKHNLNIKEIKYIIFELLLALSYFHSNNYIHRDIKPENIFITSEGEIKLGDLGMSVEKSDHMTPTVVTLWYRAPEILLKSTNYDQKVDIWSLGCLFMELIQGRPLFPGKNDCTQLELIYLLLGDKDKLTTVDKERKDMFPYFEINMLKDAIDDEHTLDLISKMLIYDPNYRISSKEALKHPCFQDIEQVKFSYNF

PKG = PKG (Plasmodium falciparum, UniProt Q8I719); assay: PKG IC50 (supplementary data file); assay type: biochemical
Sequence of PKG (Q8I719 whole entry): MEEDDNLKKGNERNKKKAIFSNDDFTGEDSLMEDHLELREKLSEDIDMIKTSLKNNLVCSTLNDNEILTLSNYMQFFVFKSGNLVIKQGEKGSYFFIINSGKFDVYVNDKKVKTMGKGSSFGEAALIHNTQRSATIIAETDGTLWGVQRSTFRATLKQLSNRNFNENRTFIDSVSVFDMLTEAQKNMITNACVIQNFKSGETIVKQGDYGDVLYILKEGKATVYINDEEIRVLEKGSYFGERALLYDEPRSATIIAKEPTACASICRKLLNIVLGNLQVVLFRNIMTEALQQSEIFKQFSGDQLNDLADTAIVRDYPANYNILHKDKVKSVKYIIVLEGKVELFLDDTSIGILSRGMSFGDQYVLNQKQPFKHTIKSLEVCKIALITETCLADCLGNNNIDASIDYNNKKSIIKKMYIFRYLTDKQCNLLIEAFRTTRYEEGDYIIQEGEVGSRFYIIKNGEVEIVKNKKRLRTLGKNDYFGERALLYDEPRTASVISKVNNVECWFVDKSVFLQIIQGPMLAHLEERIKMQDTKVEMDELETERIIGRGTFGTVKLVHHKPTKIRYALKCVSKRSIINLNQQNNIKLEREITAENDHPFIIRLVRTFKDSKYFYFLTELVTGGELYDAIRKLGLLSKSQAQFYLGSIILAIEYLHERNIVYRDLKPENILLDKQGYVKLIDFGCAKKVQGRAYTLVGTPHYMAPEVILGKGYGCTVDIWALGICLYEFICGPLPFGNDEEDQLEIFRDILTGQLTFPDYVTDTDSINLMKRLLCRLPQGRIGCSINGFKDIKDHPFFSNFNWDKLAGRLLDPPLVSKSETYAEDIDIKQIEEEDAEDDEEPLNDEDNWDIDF
Description: Supplement pone.0149996.s003.xls, sheet "combined_1_sorted"

HepG2 cells = conditions: cited from earlier work
P. falciparum 3D7 cells = conditions: 3D7, cited from earlier work
DD2 [4] = system: DD2; design: method as in F.J. Gamo et al., Nature 2010; conditions: downloaded from ChEMBL, ref F.J. Gamo et al., Nature 2010; cited from earlier work
3D7 PFLDH [5] = system: 3D7 PFLDH; design: method as in F.J. Gamo et al., Nature 2010; concentration or dose not given beside the values; conditions: downloaded from ChEMBL, ref F.J. Gamo et al., Nature 2010; cited from earlier work
DD2 [6] = system: DD2; design: method as in downloaded from ChEMBL; conditions: ref downloaded from ChEMBL; cited from earlier work
3D7 PFLDH [7] = system: 3D7 PFLDH; design: method as in downloaded from ChEMBL; conditions: ref downloaded from ChEMBL; cited from earlier work
[8] = HepG2, downloaded from ChEMBL, ref F.J. Gamo et al., Nature 2010
[9] = downloaded from ChEMBL, ref F.J. Gamo et al., Nature 2010
[10] = HEPG2, ref downloaded from ChEMBL

SMILES: CNC(=O)c1ccccc1Nc1nc(Nc2ccc(CCN3CCN(C)CC3)cc2)ncc1Cl.Cl [TCMDC-133800]
- IC50 [1]: 47 nM
- IC50 [2]: 361 nM
- IC50 [3]: 70 nM
- IC50 (PKG): 881 nM
- PCT_INHIB_HEPG2 (HepG2 cells; [8]): 76%
- PCT_IHB_3D7 (P. falciparum 3D7 cells; [9]): 97%
- pXC50_3D7 (P. falciparum 3D7 cells; [9]): 6.1864
- PCT_INHB_DD2 (DD2 [4]): 98%
- PCT_INHIB_3D7_PFLDH (3D7 PFLDH [5]): 5%

SMILES: Cl.NC[C@H](CC1CCCCC1)NC(=O)c1ccc(-c2ccnc3[nH]ccc23)s1 [TCMDC-134150]
- IC50 [1]: 492 nM
- IC50 [2]: 527 nM
- IC50 (PKG): 1020 nM
- PCT_INHIB_HEPG2 (HepG2 cells; [10]): 39
- PCT_IHB_3D7 (P. falciparum 3D7 cells; ref downloaded from ChEMBL): 98
- pXC50_3D7 (P. falciparum 3D7 cells; ref downloaded from ChEMBL): 6.022
- PCT_INHB_DD2 (DD2 [6]): 4
- PCT_INHIB_3D7_PFLDH (3D7 PFLDH [7]): 5

SMILES: NCC(NC(=O)c1ccc(-c2c[nH]c3ncccc23)s1)c1ccccc1.O=CO (stereo not shown) [TCMDC-134154]
- IC50 [1]: 29 nM
- IC50 [2]: 473 nM
- IC50 (PKG): 430 nM
- PCT_INHIB_HEPG2 (HepG2 cells; [10]): 52
- PCT_IHB_3D7 (P. falciparum 3D7 cells; ref downloaded from ChEMBL): 95
- pXC50_3D7 (P. falciparum 3D7 cells; ref downloaded from ChEMBL): 6.262
- PCT_INHB_DD2 (DD2 [6]): 87
- PCT_INHIB_3D7_PFLDH (3D7 PFLDH [7]): 0

SMILES: CC(c1cccc(Nc2nccc(-c3c(-c4cccc(NC(=O)c5c(F)cccc5F)c4)nn4ccccc34)n2)c1)S(C)(=O)=O (stereo not shown) [TCMDC-135670]
- IC50 [1]: 21 nM
- IC50 [2]: 90 nM
- IC50 (PKG): > 10000 nM
- PCT_INHIB_HEPG2 (HepG2 cells; [10]): 76
- PCT_IHB_3D7 (P. falciparum 3D7 cells; ref downloaded from ChEMBL): 98
- pXC50_3D7 (P. falciparum 3D7 cells; ref downloaded from ChEMBL): 7.241
- PCT_INHB_DD2 (DD2 [6]): 99
- PCT_INHIB_3D7_PFLDH (3D7 PFLDH [7]): 0

SMILES: O=C(Nc1c(F)cccc1F)c1cccc(-c2nn3ccccc3c2-c2ccnc(Nc3cccc(-c4cnco4)c3)n2)c1 [TCMDC-135743]
- IC50 [1]: 40 nM
- IC50 [2]: 134 nM
- IC50 (PKG): > 10000 nM
- PCT_INHIB_HEPG2 (HepG2 cells; [10]): 96
- PCT_IHB_3D7 (P. falciparum 3D7 cells; ref downloaded from ChEMBL): 95
- pXC50_3D7 (P. falciparum 3D7 cells; ref downloaded from ChEMBL): 6.443
- PCT_INHB_DD2 (DD2 [6]): 94
- PCT_INHIB_3D7_PFLDH (3D7 PFLDH [7]): 0

SMILES: CCn1c(-c2nonc2N)nc2c(-c3cccc(Cl)c3)ncc(OCCCNCCc3c[nH]cn3)c21.O=C(O)C(F)(F)F [TCMDC-135919]
- IC50 [1]: 138 nM
- IC50 [2]: 46 nM
- IC50 (PKG): 2210 nM
- PCT_INHIB_HEPG2 (HepG2 cells; [8]): 16%
- PCT_IHB_3D7 (P. falciparum 3D7 cells; [9]): 100%
- pXC50_3D7 (P. falciparum 3D7 cells; [9]): 6.007
- PCT_INHB_DD2 (DD2 [4]): 98%
- PCT_INHIB_3D7_PFLDH (3D7 PFLDH [5]): 0%

SMILES: CCn1c(-c2nonc2N)nc2c(-c3cccc(Cl)c3)ncc(OCCCNCc3cnc(C)nc3N)c21.O=C(O)C(F)(F)F [TCMDC-135956]
- IC50 [1]: 271 nM
- IC50 [2]: 145 nM
- IC50 (PKG): 9210 nM
- PCT_INHIB_HEPG2 (HepG2 cells; [8]): 21%
- PCT_IHB_3D7 (P. falciparum 3D7 cells; [9]): 93%
- pXC50_3D7 (P. falciparum 3D7 cells; [9]): 5.996
- PCT_INHB_DD2 (DD2 [4]): 48%
- PCT_INHIB_3D7_PFLDH (3D7 PFLDH [5]): 3%

SMILES: CCn1c(-c2nonc2N)nc2c(-c3ccccc3)ncc(OCCCCNCCc3ncc[nH]3)c21.O=C(O)C(F)(F)F [TCMDC-136000]
- IC50 [1]: 94 nM
- IC50 [2]: 43 nM
- IC50 (PKG): 953 nM
- PCT_INHIB_HEPG2 (HepG2 cells; [8]): 34%
- PCT_IHB_3D7 (P. falciparum 3D7 cells; [9]): 92%
- pXC50_3D7 (P. falciparum 3D7 cells; [9]): 6.07
- PCT_INHB_DD2 (DD2 [4]): 42%
- PCT_INHIB_3D7_PFLDH (3D7 PFLDH [5]): 0%

SMILES: CCn1c(-c2nonc2N)nc2c(-c3cccc(NC(=O)Nc4ccc(C(F)(F)F)cc4)c3)ncc(OCCCN)c21.O=C(O)C(F)(F)F [TCMDC-136179]
- IC50 [1]: 959 nM
- IC50 [2]: 30 nM
- IC50 (PKG): 264 nM
- PCT_INHIB_HEPG2 (HepG2 cells; [8]): 36%
- PCT_IHB_3D7 (P. falciparum 3D7 cells; [9]): 94%
- pXC50_3D7 (P. falciparum 3D7 cells; [9]): 5.981
- PCT_INHB_DD2 (DD2 [4]): 63%
- PCT_INHIB_3D7_PFLDH (3D7 PFLDH [5]): 6%

SMILES: CCn1c(-c2nonc2N)nc2c(-c3cccc(NC(=O)Nc4ccc5c(c4)CCC5)c3)ncc(OCCCN)c21.O=C(O)C(F)(F)F [TCMDC-136191]
- IC50 [1]: 85 nM
- IC50 [2]: 59 nM
- IC50 (PKG): 5050 nM
- PCT_INHIB_HEPG2 (HepG2 cells; [8]): 26%
- PCT_IHB_3D7 (P. falciparum 3D7 cells; [9]): 99%
- pXC50_3D7 (P. falciparum 3D7 cells; [9]): 6.106
- PCT_INHB_DD2 (DD2 [4]): 94%
- PCT_INHIB_3D7_PFLDH (3D7 PFLDH [5]): 0%

SMILES: CCn1c(-c2nonc2N)nc2c(-c3cccc(NC(=O)Nc4cccc(Cl)c4)c3)ncc(OCCCN)c21.O=C(O)C(F)(F)F [TCMDC-136193]
- IC50 [1]: 379 nM
- IC50 [2]: 81 nM
- IC50 (PKG): 926 nM
- PCT_INHIB_HEPG2 (HepG2 cells; [8]): 9%
- PCT_IHB_3D7 (P. falciparum 3D7 cells; [9]): 91%
- pXC50_3D7 (P. falciparum 3D7 cells; [9]): 6.027
- PCT_INHB_DD2 (DD2 [4]): 78%
- PCT_INHIB_3D7_PFLDH (3D7 PFLDH [5]): 0%

SMILES: CCn1c(-c2nonc2N)nc2c(-c3cccc(NC(=O)Nc4ccc(C#N)cc4)c3)ncc(OCCCN)c21.O=C(O)C(F)(F)F [TCMDC-136194]
- IC50 [1]: 235 nM
- IC50 [2]: 84 nM
- IC50 (PKG): 595 nM
- PCT_INHIB_HEPG2 (HepG2 cells; [8]): 1%
- PCT_IHB_3D7 (P. falciparum 3D7 cells; [9]): 85%
- pXC50_3D7 (P. falciparum 3D7 cells; [9]): 5.821
- PCT_INHB_DD2 (DD2 [4]): 80%
- PCT_INHIB_3D7_PFLDH (3D7 PFLDH [5]): 0%

SMILES: CCn1c(-c2nonc2N)nc2c(-c3cccc(NC(=O)Nc4cccc(C#N)c4)c3)ncc(OCCCN)c21.O=C(O)C(F)(F)F [TCMDC-136195]
- IC50 [1]: 182 nM
- IC50 [2]: 170 nM
- IC50 (PKG): 158 nM
- PCT_INHIB_HEPG2 (HepG2 cells; [8]): 37%
- PCT_IHB_3D7 (P. falciparum 3D7 cells; [9]): 92%
- pXC50_3D7 (P. falciparum 3D7 cells; [9]): 6.1747
- PCT_INHB_DD2 (DD2 [4]): 80%
- PCT_INHIB_3D7_PFLDH (3D7 PFLDH [5]): 0%

SMILES: CCn1c(-c2nonc2N)nc2c(-c3cccc(NC(=O)NC45CC6CC(CC(C6)C4)C5)c3)ncc(OCCCN)c21.O=C(O)C(F)(F)F [TCMDC-136246]
- IC50 [1]: 84 nM
- IC50 [2]: 158 nM
- IC50 (PKG): 89 nM
- PCT_INHIB_HEPG2 (HepG2 cells; [8]): 100%
- PCT_IHB_3D7 (P. falciparum 3D7 cells; [9]): 94%
- PCT_INHB_DD2 (DD2 [4]): 63%
- PCT_INHIB_3D7_PFLDH (3D7 PFLDH [5]): 0%
